Laboratory results: patent publication US20210060484A1, “PROTON COUPLED ELECTROCHEMICAL CO2 CAPTURE SYSTEM” (President and Fellows of Harvard College, priority 2018, published 2021)

Key:
[1] = cited from earlier work
[2] = cited from earlier work; remark: listed apart in the source
[3] = solution of zero salinity; cited from earlier work
[4] = solution of zero salinity

SMILES: O=C1C=C(S(=O)(=O)O)C=C(S(=O)(=O)O)C1=O [1,2-benzoquinone-3,5-disulfonic acid]
- reported solubility ([1]; organic PCET molecules from the redox-flow battery literature): 3000 mM
- chemical stability in water [2]: chemical instability in water

SMILES: O=C(O)O [carbonic acid]
- K1, first dissociation constant [3]: 1.1 µM
- K2, second dissociation constant [3]: 410 pM
- first pKa [4]: 6.0
- second pKa [4]: 9.4

SMILES: c1ccc2nccnc2c1 [quinoxaline]
- solubility ([1]; in water and in weakly alkaline aqueous solution): above 4.0 M
